According to ChEMBL document CHEMBL1201862, “PubChem BioAssay data set” (2004):
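A five-concentration, 48-hour dose response in 96-well plates underlies each endpoint, interpolated linearly between surrounding concentrations. GI50: concentration for 50% inhibition of growth.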 Activity calls are given as the source filed them. Rule as the data show it: active = GI50 up to about 1.1 µM and inactive = higher.

Assays:
Assay in all cases: NCI anticancer screen, dose series, 48 h
786-0 = test system: 786-0
HCT-116 = test system: HCT-116
HL-60 = test system: HL-60
HOP-92 = test system: HOP-92
Hs-578T = test system: Hs-578T
MCF7 = test system: MCF7
MDA-MB-435 = test system: MDA-MB-435
MDA-N = test system: MDA-N
MOLT-4 = test system: MOLT-4
NCI-H226 = test system: NCI-H226
OVCAR-5 = test system: OVCAR-5
OVCAR-8 = test system: OVCAR-8
RXF 393 = test system: RXF 393
SN12C = test system: SN12C
SNB-19 = test system: SNB-19
TK-10 = test system: TK-10
U-251 = test system: U-251
UACC-62 = test system: UACC-62
SF-539 = test system: SF-539
HCC 2998 = test system: HCC 2998

Measured: GI50

C#C[C@]1(O)CC[C@H]2[C@@H]3CCC4=C/C(=N/CCOC(=O)c5cccc6cc7ccccc7nc56)CC[C@@H]4[C@H]3CC[C@@]21C
inactive: 786-0 34.5 µM | HCT-116 27.1 µM | HL-60 > 100 µM | HOP-92 20.7 µM | Hs-578T 14.3 µM | MCF7 17.3 µM | MDA-MB-435 27.3 µM | MDA-N 37.6 µM | MOLT-4 > 100 µM | NCI-H226 > 100 µM | OVCAR-5 40.5 µM | OVCAR-8 10 µM | RXF 393 4.06 µM | SN12C 49.1 µM | SNB-19 30.4 µM | TK-10 31.5 µM | U-251 12.7 µM | UACC-62 22 µM

Nc1nc(=O)c(/N=N/c2ccccc2)c(C(=O)O)[nH]1
inactive: 786-0 71.6 µM | HCT-116 61.8 µM | HL-60 37.9 µM | HOP-92 > 100 µM | Hs-578T > 100 µM | MCF7 79.3 µM | MDA-MB-435 > 100 µM | MDA-N > 100 µM | MOLT-4 46.3 µM | NCI-H226 > 100 µM | OVCAR-5 > 100 µM | OVCAR-8 > 100 µM | RXF 393 > 100 µM | SF-539 > 100 µM | SN12C 96.6 µM | SNB-19 > 100 µM | TK-10 > 100 µM | U-251 56.9 µM | UACC-62 > 100 µM

S=C(CSc1ccccc1)Nc1cccc2ccccc12
inactive: 786-0 41.7 µM | HCT-116 35 µM | HL-60 40.9 µM | HOP-92 56.2 µM | Hs-578T 77.1 µM | MCF7 33.8 µM | MDA-MB-435 34.1 µM | MDA-N 40.7 µM | MOLT-4 21.6 µM | NCI-H226 42 µM | OVCAR-5 72.1 µM | OVCAR-8 67 µM | RXF 393 > 100 µM | SF-539 28.4 µM | SN12C 45.7 µM | SNB-19 76.9 µM | TK-10 36.3 µM | U-251 38.8 µM | UACC-62 32.7 µM

Cc1ccc(-c2cc(-c3ccc(Cl)cc3)nc(/N=C3\C(=O)N(CN(C)C)c4ccccc43)n2)cc1
inactive: 786-0 54.6 µM | HCT-116 64 µM | HL-60 7.89 µM | HOP-92 98.9 µM | Hs-578T 54.8 µM | MCF7 37.3 µM | MDA-MB-435 17.1 µM | MDA-N 19.4 µM | MOLT-4 11.5 µM | NCI-H226 > 100 µM | OVCAR-5 > 100 µM | OVCAR-8 58.9 µM | RXF 393 22.3 µM | SF-539 > 100 µM | SN12C > 100 µM | SNB-19 > 100 µM | TK-10 85.3 µM | U-251 55 µM | UACC-62 97.1 µM

N=C(CC(=O)Nc1ccccn1)c1ccccc1
inactive: 786-0 > 100 µM | HCT-116 > 100 µM | HL-60 > 100 µM | HOP-92 > 100 µM | Hs-578T > 100 µM | MCF7 > 100 µM | MDA-MB-435 > 100 µM | MDA-N > 100 µM | MOLT-4 > 100 µM | NCI-H226 > 100 µM | OVCAR-5 > 100 µM | OVCAR-8 > 100 µM | RXF 393 > 100 µM | SF-539 > 100 µM | SN12C > 100 µM | SNB-19 > 100 µM | TK-10 > 100 µM | U-251 > 100 µM | UACC-62 > 100 µM

O=CC(O)C(O)C(O)C1CNC(=S)O1 (configuration not stated)
inactive: 786-0 > 100 µM | HCT-116 > 100 µM | HL-60 > 100 µM | HOP-92 > 100 µM | Hs-578T > 100 µM | MCF7 > 100 µM | MDA-MB-435 > 100 µM | MDA-N > 100 µM | MOLT-4 > 100 µM | NCI-H226 > 100 µM | OVCAR-5 > 100 µM | OVCAR-8 > 100 µM | RXF 393 > 100 µM | SF-539 > 100 µM | SN12C > 100 µM | TK-10 > 100 µM | U-251 > 100 µM | UACC-62 > 100 µM

O=C(/C=C/c1ccc(O)c(O)c1)c1cc(O)cc(O)c1
inactive: 786-0 13.7 µM | HCT-116 12.8 µM | HL-60 2.25 µM | HOP-92 13 µM | Hs-578T 11 µM | MCF7 3.55 µM | MDA-MB-435 6.59 µM | MDA-N 6 µM | MOLT-4 4.91 µM | NCI-H226 14.8 µM | OVCAR-5 14.6 µM | OVCAR-8 14.3 µM | RXF 393 10.4 µM | SF-539 6.52 µM | SN12C 13 µM | SNB-19 14.5 µM | TK-10 15.3 µM | U-251 10.8 µM | UACC-62 12.9 µM

NC(=O)c1ccc(C(=O)Nc2ccc([As](=O)(O)O)cc2)cc1
inactive: 786-0 > 100 µM | HCT-116 > 100 µM | HL-60 > 100 µM | HOP-92 > 100 µM | Hs-578T > 100 µM | MCF7 > 100 µM | MDA-MB-435 > 100 µM | MDA-N > 100 µM | MOLT-4 > 100 µM | NCI-H226 > 100 µM | OVCAR-5 > 100 µM | OVCAR-8 > 100 µM | RXF 393 > 100 µM | SN12C > 100 µM | SNB-19 > 100 µM | TK-10 > 100 µM | U-251 > 100 µM | UACC-62 > 100 µM

O=C(CC(C(=O)c1cccs1)c1cccs1)c1ccccc1Cl (configuration not stated)
inactive: 786-0 > 100 µM | HCC 2998 > 100 µM | HCT-116 52.1 µM | HL-60 76.4 µM | Hs-578T 75.3 µM | MCF7 > 100 µM | MDA-MB-435 > 100 µM | MDA-N 97.7 µM | MOLT-4 46.1 µM | NCI-H226 > 100 µM | OVCAR-5 > 100 µM | OVCAR-8 > 100 µM | SF-539 > 100 µM | SN12C > 100 µM | SNB-19 > 100 µM | TK-10 > 100 µM | U-251 > 100 µM | UACC-62 > 100 µM

Cn1c(N/N=C/c2ccccc2)nc(-c2ccc3c(c2)OCO3)c(C#N)c1=O
inactive: 786-0 > 100 µM | HCT-116 > 100 µM | HL-60 39.9 µM | HOP-92 2.85 µM | Hs-578T 48.5 µM | MCF7 > 100 µM | MDA-MB-435 73.8 µM | MDA-N > 100 µM | MOLT-4 48.4 µM | OVCAR-5 > 100 µM | OVCAR-8 22.8 µM | RXF 393 81.8 µM | SF-539 > 100 µM | SN12C 65.2 µM | SNB-19 > 100 µM | TK-10 69.7 µM | U-251 > 100 µM | UACC-62 40.3 µM

COc1ccc2c(c1)CCc1c-2n(CCN2CCCCC2)c2ccc(OC)cc12
inactive: 786-0 > 100 µM | HCC 2998 > 100 µM | HCT-116 > 100 µM | HOP-92 > 10 µM | Hs-578T > 100 µM | MCF7 > 100 µM | MDA-MB-435 > 100 µM | MDA-N > 100 µM | MOLT-4 > 10 µM | NCI-H226 10.4 µM | OVCAR-5 > 100 µM | OVCAR-8 92 µM | SN12C > 100 µM | SNB-19 > 100 µM | TK-10 > 100 µM | U-251 > 100 µM | UACC-62 > 100 µM
